Here are results for 28 compounds from patent US20040127492A1 (Pharmacia Corporation, priority 2002, published 2004).

Assay [1] addresses MAPKAPK2 (MK-2) (Homo sapiens, UniProt P49137). The experiment in a line: Determination of MK-2 IC50 (HSP-peptide phosphorylation, anion exchange resin capture assay). The format is biochemical. The procedure, abridged:
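Radiometric peptide assay: 15 nM p38α-activated MK-2, HSP-peptide, 0.03 mM ATP with [γ33P]ATP, 2% DMSO, pH 7.5, 30° C for 30 min; unreacted ATP removed on AG 1×8 resin before counting. Six concentrations in ten-fold steps, each in triplicate, gave IC50 in μM.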

Assay [2] addresses MK-3 (Homo sapiens, UniProt Q16644). Put plainly: MK-3 inhibition IC50 (similar method to MK-2, with appropriate modifications). The format is biochemical.
Setting [3] is: Table 1, phenoxypyrazole MK-2 inhibitors, read-out: MK-2 Avg, IC50.
The mark [4] stands for this setting: Table 1, phenoxypyrazole MK-2 inhibitors, read-out: MK-3 Avg. IC50.
Where [5] appears, read: Table 2, pyrazolylpyrazole MK-2 inhibitors, read-out: MK-2 Avg. IC50.
Where [6] appears, read: Table 2, pyrazolylpyrazole MK-2 inhibitors, read-out: MK-3 Avg. IC50.
The mark [7] stands for this setting: Table 5, other cyclic pyrazole MK-2 inhibiting compounds, read-out: MK-2 Avg. IC50.
Setting [8] is: Table 5, other cyclic pyrazole MK-2 inhibiting compounds, read-out: MK-3 Avg. IC50.

Each structure is given as a SMILES string. pIC50: −log10 of the molar value. Read-outs that look alike come from different tables or passages of the source.

Chain of MAPKAPK2 (MK-2) (P49137 whole entry, species assumed): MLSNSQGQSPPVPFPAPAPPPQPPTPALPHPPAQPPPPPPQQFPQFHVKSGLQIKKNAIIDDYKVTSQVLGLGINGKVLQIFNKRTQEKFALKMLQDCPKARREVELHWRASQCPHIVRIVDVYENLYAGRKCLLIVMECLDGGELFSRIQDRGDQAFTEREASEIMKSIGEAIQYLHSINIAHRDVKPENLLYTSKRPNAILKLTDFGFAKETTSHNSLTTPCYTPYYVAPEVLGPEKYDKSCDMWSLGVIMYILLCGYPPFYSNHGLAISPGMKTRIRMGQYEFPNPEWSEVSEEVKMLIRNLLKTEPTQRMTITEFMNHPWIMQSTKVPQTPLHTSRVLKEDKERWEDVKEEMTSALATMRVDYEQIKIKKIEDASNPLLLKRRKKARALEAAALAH
Chain of MK-3 (Q16644 whole entry, species assumed): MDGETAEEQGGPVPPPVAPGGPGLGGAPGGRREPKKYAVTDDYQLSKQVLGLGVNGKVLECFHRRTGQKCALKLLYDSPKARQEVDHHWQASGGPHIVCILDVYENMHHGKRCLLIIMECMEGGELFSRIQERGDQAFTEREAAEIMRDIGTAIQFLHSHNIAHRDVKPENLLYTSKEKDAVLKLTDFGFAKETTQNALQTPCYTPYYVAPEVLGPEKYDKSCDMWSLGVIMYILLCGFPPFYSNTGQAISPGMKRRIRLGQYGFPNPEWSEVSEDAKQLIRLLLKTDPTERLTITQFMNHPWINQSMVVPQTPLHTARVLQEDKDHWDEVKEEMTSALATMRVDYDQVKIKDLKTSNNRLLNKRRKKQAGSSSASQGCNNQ

For `O=C(O)c1c2c(nn1CCCNCCc1ccc(-c3ccccc3Cl)cc1)-c1ccncc1CC2` [Example 32], the negative-log IC50 (pIC50) in assay [1] (read-out: MK-2 Avg. IC50) was 6.73; in assay [2] (read-out: MK-3 Avg. IC50) it was 5.02.
For the compound `O=C(O)c1c2c(nn1CCCNCCc1ccc(Cl)cc1Cl)-c1ccncc1CC2` [Example 47], the figures for the pIC50 in assay [1] (read-out: MK-2 Avg. IC50) and in assay [2] (read-out: MK-3 Avg. IC50) were 6.46 and 5.18, respectively.
Turning to `O=C(O)c1[nH]nc2c1CCc1cc(O)ccc1-2` [Example 24], the pIC50 in assay [1] (setting [3]) is 4.71; in assay [2] (setting [4]), below 3.70.
On to `NCCCCn1nc2c(c1C(=O)O)CCc1[nH]ncc1-2` [Example 10], for which the values for the negative logarithm of the IC50 (pIC50) in assay [1] (setting [5]) and in assay [2] (setting [6]) were 5.00 and at most 3.70, respectively.
`CCOC(=O)c1c2c(nn1CCCN)-c1cc(/C=C/c3ccccc3)ncc1CC2` [Example 38]: the negative logarithm of the IC50 (pIC50) in assay [1] (setting [7]) is 5.44; in assay [2] (setting [8]), below 4.70.
Regarding `N#CC(N)CCn1nc2c(c1C(=O)O)CCc1cnccc1-2` (centres unmarked) [Example 207], the negative logarithm of the IC50 (pIC50) in assay [1] (read-out: MK-2 Avg. IC50) was 4.43; in assay [2] (read-out: MK-3 Avg. IC50), 3.73.
As for `CCOC(=O)c1nn(CC(F)(F)F)c2c1CCc1c-2cnn1C(c1ccccc1)(c1ccccc1)c1ccccc1` [Example 73], the pIC50 in assay [1] (setting [5]) and in assay [2] (setting [6]) was at most 3.70 in each case.
Take `CCOC(=O)c1[nH]nc2c1CCc1cc(OC)c(OC)cc1-2` [Example 167]: the pIC50 in assay [1] (setting [3]) and in assay [2] (setting [4]) was below 3.70 each time.
Turning to `CC(=O)c1ccc(CCCNCCCn2nc3c(c2C(=O)O)CCc2cnccc2-3)cc1` [Example 63], the figures for the pIC50 in assay [1] (read-out: MK-2 Avg. IC50) and in assay [2] (read-out: MK-3 Avg. IC50) were 6.22 and 4.90, respectively.
Turning to `O=C1NCCCn2nc3c(c21)CCc1[nH]ncc1-3` [Example 13], the pIC50 in assay [1] (setting [5]) was 4.71; in assay [2] (setting [6]) it was 3.84.
As for `NCCCn1nc2c(c1C(=O)O)CCc1cnc(-c3cnc4ccccc4c3)nc1-2` [Example 1], the negative logarithm of the IC50 (pIC50) in assay [1] (Table 4, pyrimidylpyrazole MK-2 inhibitors, read-out: MK-2 Avg. IC50) was 7.12; in assay [2] (Table 4, pyrimidylpyrazole MK-2 inhibitors, read-out: NK-3 Avg. IC50), 5.71.
`CS(=O)(=O)c1cccc(-c2cc3c(cc2O)CCc2c-3nn(CCCN)c2C(=O)O)c1` [Example 16]: the pIC50 was 4.89 in assay [1] (setting [3]) and below 3.70 in assay [2] (setting [4]).
As to `NCCCn1nc2c(c1C(=O)O)CCc1cnc(-c3ccc(O)cc3)cc1-2` [Example 3], the pIC50 in assay [1] (read-out: MK-2 Avg. IC50) is 7.72; in assay [2] (read-out: MK-3 Avg. IC50), 6.44.
For the compound `NCCn1nc2c(c1C(=O)O)CCc1cc(O)c(-c3cccc([N+](=O)[O-])c3)cc1-2` [Example 2], the pIC50 in assay [1] (setting [3]) is 6.07; in assay [2] (setting [4]) it was 4.39.
With `O=C(O)c1c2c(nn1CCCNCCc1cccs1)-c1cn[nH]c1CC2` [Example 7], the pIC50 is 5.44 in assay [1] (setting [5]) and 4.26 in assay [2] (setting [6]).
On to `O=C1NCCn2nc3c(c21)CCc1cnc(/C=C/c2ccc4c(c2)OCO4)cc1-3` [Example 4], for which the negative logarithm of the IC50 (pIC50) is 6.65 in assay [1] (setting [7]) and below 4.70 in assay [2] (setting [8]).
Turning to `COc1ccc(-c2cc3c(cn2)CCc2c-3nn3c2C(=O)NCCC3)cc1` [Example 25], the results for the pIC50 in assay [1] (read-out: MK-2 Avg. IC50) and in assay [2] (read-out: MK-3 Avg. IC50) were 6.85 and 5.19, respectively.
`NC(=O)c1nn(-c2ccccc2)c2c1CCc1[nH]ncc1-2` [Example 29]: the negative-log IC50 (pIC50) in assay [1] (setting [5]) is 3.95; in assay [2] (setting [6]), at most 3.70.
As for `NCCCn1nc2c(c1C(=O)O)CCc1cc(O)c(-c3ccc(F)c(F)c3)cc1-2` [Example 17], the values for the negative logarithm of the IC50 (pIC50) in assay [1] (setting [3]) and in assay [2] (setting [4]) were 4.85 and 3.78, respectively.
In the case of `NCCCn1nc2c(c1C(=O)O)CCc1cc(O)c(-c3cccc(C(F)(F)F)c3)cc1-2` [Example 11], the pIC50 is 5.12 in assay [1] (setting [3]) and 4.14 in assay [2] (setting [4]).
For the compound `CS(=O)(=O)c1cccc(-c2cc3c(cn2)CCc2c-3nn(CCCN)c2C(=O)O)c1` [Example 11], the negative logarithm of the IC50 (pIC50) in assay [1] (read-out: MK-2 Avg. IC50) is 7.41; in assay [2] (read-out: MK-3 Avg. IC50), 6.34.
As to `CCOC(=O)Cn1nc2c(c1C(=O)OCC)CCc1[nH]ncc1-2` [Example 113], the negative logarithm of the IC50 (pIC50) in assay [1] (setting [5]) and in assay [2] (setting [6]) was at most 3.70 in each case.
On to `O=C(O)c1c2c(nn1CCCNCCc1ccc(-c3ccc(C(F)(F)F)cc3)cc1)-c1ccncc1CC2` [Example 26], for which the results for the negative-log IC50 (pIC50) in assay [1] (read-out: MK-2 Avg. IC50) and in assay [2] (read-out: MK-3 Avg. IC50) were 6.83 and 5.04, respectively.
Take `NCCCn1nc2c(c1C(=O)O)CCc1cc(O)c(-c3cccc(Cl)c3)cc1-2` [Example 13]: the pIC50 was 4.98 in assay [1] (setting [3]) and 3.92 in assay [2] (setting [4]).
Take `CCOC(=O)c1nn(-c2ccc(S(N)(=O)=O)cc2)c2c1CCc1cc(OC)ccc1-2` [Example 178]: the pIC50 in assay [1] (setting [3]) and in assay [2] (setting [4]) was below 3.70 in each case.
Consider `O=C(O)c1[nH]nc2c1CCc1c-2cnn1CCO` [Example 30], for which the values for the pIC50 in assay [1] (setting [5]) and in assay [2] (setting [6]) were 3.94 and at most 3.70, respectively.
In the case of `O=C1NCCn2nc3c(c21)CCc1cnc(/C=C/c2cccc(Cl)c2)cc1-3` [Example 10], the pIC50 is 5.53 in assay [1] (setting [7]) and below 4.70 in assay [2] (setting [8]).
For the compound `NCCCn1nc2c(c1C(=O)O)CCc1cc(O)c(Br)cc1-2` [Example 8], the negative logarithm of the IC50 (pIC50) in assay [1] (setting [3]) is 5.43; in assay [2] (setting [4]), below 3.70.

A word on the pIC50: it is −log10 of the IC50, conventionally taken in molar units.
